From patent US9364469B1, “Identification of a new AMPK activator for treatment of lung cancer” (Macau University of Science and Technology, priority 2015, dated 2016)

Columns and labels:
H1975 cells [1] = assay: Apoptosis assay (Annexin V/PI flow cytometry, morphology observation); assay type: cell-based; details: 48 h
Description: H1975 cells (1×10^5 cells/well) were seeded in a 6-well plate for 24 hours, and treated with the indicated concentrations of D561-0775 for an additional 48 hours at 37° C. After 48 hours, the cells were washed by ice-cold 1×PBS once and harvested by trypsination. Then cells were centrifuged, collected and re-suspended in ice-cold 1×PBS. After removing the supernatants, cell pellets were re-suspended in 100 μL 1× Annexin-binding buffer. The cells were then double-stained with Annexin-V FITC and PI (100 μg/mL) of 2 μL respectively for 15 min at room temperature in dark. After that, 300 μL 1× Annexin-binding buffer was added. Apoptotic cells were quantitatively counted by a BD Aria III Flow Cytometer (BD Biosciences, San Jose, Calif., USA)

AMPK kinase = assay: AMPK enzyme activity assay (CycLex AMPK Kinase Assay Kit); assay type: biochemical; details: indicated concentrations, n=3, ** p<0.005, ***p<0.001
From the text: The CycLex AMPK Kinase Assay Kit (CycLex Co., Ltd., Nagano, Japan) was used to detect the activation of AMPK by D561-0775. AMP was used as positive control, compound c was used as AMPK inhibitor, and AMPK kinase was used for representing the basal level.

ACC = assay: Western blot analysis of ACC phosphorylation; assay type: cell-based; details: H1975 cells, 24 hours
Description: (§1) After incubating H1975 cells with D561-0775 for 24 hours, H1975 cells were harvested and washed with cold 1×PBS. Then, cells were lysed with ice-cold RIPA lysis buffer with protease and phosphatase inhibitors added to extract the cell protein extraction. The supernatants were collected by centrifugation at 12,000 g, for 5 minutes. The quantitation of total protein extraction was measured by Bio-Rad DCTM protein assay kit (Bio-Rad, Philadelphia, Pa., USA). Then 30 μg of protein was loaded and electrophoretically separated on 8% SDS-PAGE gel and then transferred to Nitrocellulose (NC) membrane. Membranes were blocked with 5% non-fat milk and […] containing 0.1% Tween-20 (TBST) for 1 hour at room temperature. After 1 hour, membranes were incubated with primary anti-bodies (1:1000 dilution) against GAPDH, total/phosphor-ACC, total-AMPK, and (1:500 dilution) against phosphor-AMPK, at 4° C. with gently shaking overnight. Membranes were washed with TBST for 3 times (5 minutes/time), and incubated with secondary fluorescent antibody (1:10000 dilutions) for 1 hour at room temperature. After rewashing the membranes with TBST for 3 times (15 minutes/time), the stripes were visualized by LI-COR Odessy scanner (Belfast, Me., USA).

H1975 cells [2] = assay: MTT cytotoxicity assay; assay type: cell-based; details: 72 h treatment, read-out: IC50 (cell proliferation, MTT)
Description: H1975 was purchased from ATCC (American type culture collection) and was cultivated with RPMI 1640 medium supplement with 10% fetal bovine serum (Gibco, Big Cabin, Oklahoma, Me., USA), 100 U/mL, penicillin and 100 μg/mL and streptomycin (Gibco, Big Cabin, Oklahoma, Me., USA). The cells were cultured in incubator with 5% CO2 at 37° C.
Cells were seeded in a 96-well microplate with 5000 cells/well confluence, and put into the incubator overnight for cell adhesion. Different concentrations of the drug D561-0775 were added with Dimethyl sulfoxide (DMSO) as vehicle control. The microplates were incubated for another 72 hours. The whole experiment was repeated in triplicate. 10 μL of MTT (5 mg/mL) solution was added to each well. The plate was placed back into the incubator for 4 hours. After that, 100 μL of resolved solution (10% SDS and 0.1 mM HCL) was added to each well. Before dissolving the formazan crystals, the microplate was put back into the incubator for another 4 hours. The absorbance of the plate was measured at 570 nm with reference at 650 nm by a microplate reader (Tecan, Morrisville, N.C., USA). Cell viability was calculated by percentages of the absorbance of the treatment group divided by the absorbance of untreated group. At least three independent experiments were performed for data analysis and presentation.

AMPK = assay: Western blot analysis of AMPK phosphorylation; assay type: cell-based; details: H1975 cells, 24 hours
Description: as §1

[3] = 20 μM treatment group, **p<0.01, n=3

## N#Cc1nc(-c2ccc(COc3ccc(Br)cc3)o2)oc1NCc1cccnc1 [D561-0775]
H1975 cells [1]; [3]
  percentage of apoptotic cells vs control group: significant higher percentage of apoptotic cells
  percentage of viable cells vs control group: lower percentage of viable cells
H1975 cells [1]; Annexin V/PI
  apoptosis induction (flow cytometry): induced significant level of apoptosis in a dose-dependent manner
H1975 cells [1]; morphology observation
  cell morphology: floated and rounded-up starting at 20 μM
AMPK kinase
  AMPK kinase activity (fold of AMPK kinase alone group): enhanced in a dose-dependent manner
ACC
  phosphorylation of ACC: activated phosphorylation of both AMPK and ACC in a dose-dependent manner
H1975 cells [2]
  IC50: 9.59 ± 1.73 µM
AMPK
  phosphorylation of AMPK: activated phosphorylation of both AMPK and ACC in a dose-dependent manner
